Measured values: article PMC6784148 (Toxins, 2019)
Read-outs that look alike come from different tables or passages of the source.

Tests used:
[1] = test system: intestinal porcine epithelial cell line (IPEC-J2)
[2] = test system: glucuronidation of DON in human liver microsomes; design: method as in PMID 31049613, PMID 29465119; settings: cited from earlier work
[3] = pigs; cited from earlier work
[4] = test system: intestinal porcine epithelial cell line (IPEC-J2); assay: cells; settings: Sus scrofa, IPEC-J2, 48 h
Caco-2 cells = test system: Caco-2 cells; design: method as in doi:10.3920/WMJ2014.1861; settings: 780 µM, 48 h of incubation; cited from earlier work
THP-1 monocytes = test system: THP-1 monocytes; design: method as in doi:10.3920/WMJ2014.1861; settings: cited from earlier work
in vitro = settings: pig
[5] = test system: three different cancer cell lines; design: method as in PMID 1172201; settings: cited from earlier work
HT29 cells = test system: HT29 cells; design: method as in PMID 29248571; settings: after 48 h; cited from earlier work
HCEC-1CT cells = test system: HCEC-1CT cells; design: method as in PMID 29248571; settings: after 48 h; cited from earlier work
rats = test system: rats; design: method as in PMID 9872769; settings: at levels of 0.05 and 0.1%; cited from earlier work
[6] = design: method as in PMID 24239892, PMID 22008903; settings: cited from earlier work
HepG2 cells = settings: up until a concentration of 100 µM; cited from earlier work

| Compound | Absolute IC50 value [1] [µg/kg] | Relative IC50 value [1] [µg/kg] | Negative effects on IPEC-J2 in the tested concentration range [1] | IC50 ([4]; read-out: Relative IC50 value) [µM] | further results |
| --- | --- | --- | --- | --- | --- |
| Enniatin A1 | 2772 | 2151 | – | – | IC50 ([1]; read-out: Absolute IC50 value): 4.15 µM; IC50 ([1]; read-out: Relative IC50 value): 3.22 µM |
| CC1(C)CCC[C@]2(C)[C@@H]3[C@H]1[C@@H](O)[C@@]2(C)C[C@H]3O [culmorin] | – | – | None | – | Cytotoxic effect on IPEC-J2 (in words) [1]: no cytotoxic effect; Effect on glucuronidation of DON [2]: able to inhibit the glucuronidation of DON |
| CC1=C[C@H]2O[C@@H]3[C@H](O)C[C@](C)([C@@]2(CO)[C@H](O)C1=O)[C@]31CO1 [Deoxynivalenol, reference compound] | 756 | 557 | – | – | IC50 ([1]; read-out: Absolute IC50 value): 2.55 µM; IC50 ([1]; read-out: Relative IC50 value): 1.88 µM; Bioavailability after oral administration [3]: 98.6% ± 23.6% |
| COc1c(C)c2c(c(O)c1C/C=C(\C)CCC(=O)O)C(=O)OC2 [Mycophenolic Acid, Mycophenolic acid] | – | 170 | – | 0.543 | Abrupt decreased viability [1]: 26.1% ± 12.1%; Cytotoxic effect on IPEC-J2 (in words) [1]: slight decrease in viability; Viability at concentrations from 2.5 to 150 µM [1]: no further loss in viability; IC50 ([1]; read-out: Relative IC50 value): 0.53 µM; Decrease of mitochondrial activity (Caco-2 cells): 45%; Effect in THP-1 monocytes (THP-1 monocytes): no effect; viability (in vitro): ≥ 66% |
| COC1=CC(=O)c2c(c(O)c3oc4cc(OC)cc(C)c4c(=O)c3c2O)C1=O [Bikaverin] | 711 | 287 | – | 0.75 | Viability after applying higher concentrations [1]: did not further decrease below 50%; IC50 ([4]; read-out: Absolute IC50 value): 1.86 µM; ED50 (cytotoxicity) [5]: 0.5 to 4.2 µg/mL; ED50 (cytotoxicity) ([5]; µg/mL values expressed in µM): 1.31 to 10.99 µM |
| OCCc1c[nH]c2ccccc12 [tryptophol] | – | – | None | – | – |
| O=C1N[C@@H](Cc2c[nH]c3ccccc23)C(=O)N2CCC[C@@H]12 [brevianamid F] | – | – | None | – | – |
| CN1C(=O)[C@]23CC4=CC=C[C@H](O)[C@H]4N2C(=O)[C@@]1(CO)SS3 [Gliotoxin] | 209 | 206 | – | 0.63 | IC50 ([4]; read-out: Absolute IC50 value): 0.64 µM |
| C/C=C/[C@@H]1C=C[C@@H]2C[C@H](C)CC[C@H]2[C@]1(C)/C(O)=C1/C(=O)[C@H](CO)N(C)C1=O [Equisetin] | – | 4120 | – | – | Cytotoxic effect on IPEC-J2 (in words) [1]: slight decrease in viability; Cell viability ([1]; 20 µM): 64.0% (±7.6%); IC50 ([1]; read-out: Relative IC50 value): 11 µM |
| COc1cc(O)c2c(=O)oc3cc(O)cc(C)c3c2c1 [alternariol monomethyl ether] | – | – | None | – | – |
| Enniatin A | 2319 | 1964 | – | – | IC50 ([1]; read-out: Absolute IC50 value): 3.4 µM; IC50 ([1]; read-out: Relative IC50 value): 2.88 µM |
| COC1=C(C2=C(OC)C(=O)c3cc4oc(C)cc(=O)c4c(O)c3C2=O)C(=O)c2c(cc3oc(C)cc(=O)c3c2O)C1=O [Aurofusarin] | 6766 | 5329 | – | – | IC50 ([1]; read-out: Absolute IC50 value): 11.9 µM; IC50 ([1]; read-out: Relative IC50 value): 9.34 µM; Concentration at which a significant decrease in viability starts (HT29 cells): 5 µM; Concentration at which a significant decrease in viability starts (HCEC-1CT cells): 5 µM |
| CCC(=O)CCCCC[C@@H]1NC(=O)[C@H]2CCCCN2C(=O)[C@H]([C@@H](C)CC)NC(=O)[C@H](Cc2cn(OC)c3ccccc23)NC1=O [Apicidin] | 324 | 306 | – | 0.49 | IC50 ([4]; read-out: Absolute IC50 value): 0.52 µM; Toxic effects in rats (rats): leading to death |
| O=C1C=C2C(=CCOC2O)O1 (stereo not shown) [Patulin] | 495 | 490 | – | 3.18 | IC50 ([4]; read-out: Absolute IC50 value): 3.21 µM |
| CC(C)C[C@@H]1NC(=O)[C@H](C)N(C)C(=O)CNC(=O)/C(=C/c2ccccc2)N(C)C1=O [tentoxin] | – | – | None | – | – |
| O=C1N[C@@H](Cc2ccc(O)cc2)C(=O)N2CCC[C@@H]12 [cyclo-(L-Pro-L-Tyr)] | – | – | None | – | Cytotoxic effect on IPEC-J2 (in words) [1]: non-cytotoxic |
| C=CC(C)(C)[C@@]12C[C@H]3C(=O)N/C(=C/c4c[nH]cn4)C(=O)N3[C@@H]1Nc1ccccc12 [roquefortine C] | – | – | None | – | – |
| O=c1cc(O)c1=O [moniliformin] | – | – | None | – | – |
| CC(C)[C@@H]1NC(=O)[C@@H]2CCCN2C1=O [cyclo-(L-Pro-L-Val)] | – | – | None | – | – |
| CCCCc1ccc(C(=O)O)nc1 [fusaric acid] | – | – | None | – | – |
| O=c1cc(CO)occ1O [kojic acid] | – | – | None | – | – |
| Beauvericin | 1905 | 1756 | – | – | IC50 ([1]; read-out: Absolute IC50 value): 2.43 µM; IC50 ([1]; read-out: Relative IC50 value): 2.24 µM |
| COc1cc(O)c2c(O)c3c(=O)cc(C)oc3cc2c1 [Rubrofusarin] | – | 5865 | – | 21.5 | Cytotoxic effect on IPEC-J2 (in words) [1]: slight decrease in viability; viability at 50 µM (in vitro): 64 ± 8.7% |
| Cc1cc(O)c2c(c1)C(=O)c1cc(O)cc(O)c1C2=O [Emodin] | 5056 | 3537 | – | 13.1 | Viability after applying higher concentrations [1]: did not further decrease below 50%; Viability at concentrations >50 µM [1]: did not further decrease; IC50 ([4]; read-out: Absolute IC50 value): 18.7 µM |
| O=C(O)CC[N+](=O)[O-] [3-nitropropionic acid] | – | – | None | – | – |
| CC(C)[C@H]1C(=O)O[C@H](C(C)C)C(=O)N(C)[C@@H](C(C)C)C(=O)O[C@H](C(C)C)C(=O)N(C)[C@@H](C(C)C)C(=O)O[C@H](C(C)C)C(=O)N1C [Enniatin B] | 2079 | 2233 | – | 3.49 | Viability after applying higher concentrations [1]: did not further decrease below 50%; IC50 ([4]; read-out: Absolute IC50 value): 3.25 µM |
| CC[C@H](C)[C@H]1C(=O)O[C@H](C(C)C)C(=O)N(C)[C@@H](C(C)C)C(=O)O[C@H](C(C)C)C(=O)N(C)[C@@H](C(C)C)C(=O)O[C@H](C(C)C)C(=O)N1C [Enniatin B1] | 2400 | 1759 | – | 2.69 | IC50 ([4]; read-out: Absolute IC50 value): 3.67 µM; Oral bioavailability [6]: high oral bioavailability |
| Cc1cc(O)cc2oc(=O)c3c(O)cc(O)cc3c12 [Alternariol] | – | 5232 | – | 20.3 | Cytotoxic effect on IPEC-J2 (in words) [1]: slight decrease in viability; Cell viability of HepG2 cells (HepG2 cells): did not decrease in a concentration-dependent manner; viability (in vitro): ~50%; viability at 20 µM (in vitro): 76.3% |
